The results in this text go back to PubChem BioAssay (NCI).

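Exposure lasted 48 hours, with cells grown in 96-well plates and compounds tested at five concentrations. At the GI50, growth is halved. The concentration for full growth arrest is given as TGI.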

Test systems include SR leukemia; U251 CNS; SK-OV-3 ovarian; MCF7 breast; BT-549 breast; UACC-257 melanoma; HT29 colon; RXF 393 renal; OVCAR-8 ovarian; DU-145 prostate.
Test in all cases: inhibition of tumour cell growth, NCI panel, 48 h

For the compound `OCC(S)CS.[Bi]` (stereo not given), the TGI is over 100 µM with SR leukemia; 40.2 µM with U251 CNS; over 100 µM with SK-OV-3 ovarian; over 100 µM in the assay on MCF7 breast; 27.8 µM with BT-549 breast; 27.9 µM with UACC-257 melanoma. Besides, the TGI in the assay on HT29 colon was found to be 46.4 µM; in the assay with RXF 393 renal, 26.2 µM; in the assay on OVCAR-8 ovarian, 52.3 µM; with DU-145 prostate it was 68.5 µM.

Take `COc1ccc(S(=O)(=O)Nc2cc(Sc3cccc4cccnc34)c(O)c3ccccc23)cc1`: the GI50 was 358 nM in the assay on SR leukemia; 579 nM in the assay with U251 CNS; 3.59 µM in the assay on SK-OV-3 ovarian; 420 nM in the assay with MCF7 breast; 2650 nM in the assay on BT-549 breast; 1850 nM in the assay on UACC-257 melanoma. The GI50 in the assay on HT29 colon is 823 nM; in the assay with RXF 393 renal, 1240 nM; with OVCAR-8 ovarian, 595 nM; in the assay with DU-145 prostate, 738 nM. Moreover, the TGI with SR leukemia is over 100 µM; in the assay on U251 CNS, 11.9 µM; in the assay with SK-OV-3 ovarian it was 14.4 µM; in the assay with MCF7 breast, 2.77 µM; in the assay on BT-549 breast, 16.9 µM; in the assay on UACC-257 melanoma it was 6.04 µM. Moreover, the TGI with HT29 colon is 10.4 µM; in the assay with RXF 393 renal, 6.33 µM; in the assay on OVCAR-8 ovarian, 18.8 µM; in the assay on DU-145 prostate, 2.65 µM.

As to `C=C1CC(O)C2C(=C)C(=O)OC2C2C(C)C(=O)CC12` (stereo not given), the TGI in the assay with SR leukemia is 53.2 µM; in the assay on U251 CNS, 59.1 µM; in the assay with SK-OV-3 ovarian, over 100 µM; in the assay with MCF7 breast, 26.2 µM; in the assay on BT-549 breast, 21.5 µM; in the assay on UACC-257 melanoma it was 26.5 µM. In addition, the TGI stood at 42.8 µM in the assay on HT29 colon, 17.4 µM in the assay with RXF 393 renal, 50.9 µM in the assay with OVCAR-8 ovarian and 46.8 µM in the assay on DU-145 prostate.

Consider `Cn1c2ccccc2c2c3c(c4c5ccccc5n(C)c4c21)C(=O)N(c1ccccc1)C3=O`, for which the TGI in the assay with SR leukemia, in the assay with U251 CNS, in the assay with SK-OV-3 ovarian, with MCF7 breast, in the assay on BT-549 breast and with UACC-257 melanoma was over 100 µM throughout. In addition, the TGI in the assay with HT29 colon, in the assay with OVCAR-8 ovarian and with DU-145 prostate was over 100 µM each time.

With `CCOC(=O)C1=C(C)N(Cc2ccccc2)C2(O)C(OC)CC(=O)C3C(=O)N(c4ccccc4)C(=O)C132` (stereo not given), the TGI with SR leukemia was 86.8 µM; in the assay with U251 CNS, over 100 µM; with MCF7 breast it was 34.5 µM; in the assay with BT-549 breast it was 24.3 µM; with UACC-257 melanoma, 37.7 µM; in the assay with HT29 colon, 23.9 µM. The TGI with RXF 393 renal was 94.1 µM; in the assay on OVCAR-8 ovarian it was 31.9 µM; with DU-145 prostate, 15.1 µM.

Take `Nc1c(C(=O)O)nnc2cc(Cl)ccc12`: the TGI in the assay on SR leukemia, in the assay on U251 CNS, with SK-OV-3 ovarian, in the assay with MCF7 breast, with BT-549 breast and in the assay on UACC-257 melanoma was over 100 µM each time. For the same compound, the TGI with HT29 colon, with OVCAR-8 ovarian and with DU-145 prostate was over 100 µM throughout.

`COc1ccc(/C=C(/c2ccc(OC)cc2)c2c(Cl)cc(Cl)c(/C(=C\c3ccc(OC)cc3)c3ccc(OC)cc3)c2N=Nc2ccccc2)cc1`: the TGI with U251 CNS, with SK-OV-3 ovarian, in the assay with MCF7 breast, in the assay with BT-549 breast, in the assay with UACC-257 melanoma and with HT29 colon was over 100 µM each time. The TGI in the assay on RXF 393 renal, in the assay on OVCAR-8 ovarian and in the assay on DU-145 prostate was over 100 µM each time.

On to `NS(=O)(=O)c1ccc(NCc2nc3ccccc3[nH]2)cc1`, for which the TGI in the assay on U251 CNS, in the assay on SK-OV-3 ovarian, in the assay on MCF7 breast, in the assay on BT-549 breast, in the assay on UACC-257 melanoma and with HT29 colon was over 100 µM each time. Further, the TGI in the assay on RXF 393 renal, with OVCAR-8 ovarian and with DU-145 prostate was over 100 µM throughout.

As to `CCCCCCCCCCOc1ccc(N=Nc2nnc(-c3ccc(OCCCCC)cc3)s2)cc1`, the TGI with U251 CNS, with SK-OV-3 ovarian, in the assay with MCF7 breast, in the assay on BT-549 breast, in the assay with UACC-257 melanoma and in the assay on HT29 colon was over 100 µM each time. For the same compound, the TGI in the assay with RXF 393 renal, with OVCAR-8 ovarian and in the assay with DU-145 prostate was over 100 µM each time.

As for `O=C(CN1CCN(c2ccccn2)CC1)N1CCCn2c1nc1ccccc1c2=O`, the TGI in the assay with SR leukemia, in the assay with U251 CNS, in the assay with SK-OV-3 ovarian, with MCF7 breast, in the assay with BT-549 breast and in the assay with UACC-257 melanoma was over 100 µM each time. The TGI with HT29 colon, in the assay on OVCAR-8 ovarian and in the assay on DU-145 prostate was over 100 µM in each case.

Take `CC1CN=C(c2ccc(CN3CCC(CCCC4CCN(Cc5ccc(C6=NCC(C)N6)cc5)CC4)CC3)cc2)N1` (stereo not given): the TGI is over 100 µM with U251 CNS; over 100 µM in the assay with SK-OV-3 ovarian; 50.3 µM in the assay with MCF7 breast; over 100 µM in the assay on BT-549 breast; 45.9 µM in the assay on UACC-257 melanoma; over 100 µM with HT29 colon. Besides, the TGI with RXF 393 renal, with OVCAR-8 ovarian and in the assay with DU-145 prostate was over 100 µM in each case.

Consider `Cc1cc(OCc2nnc3n2N=C(c2cc(F)c(Cl)cc2Cl)/C(=C/c2ccc(-c4ccc(Cl)cc4)o2)S3)ccc1Cl`, for which the TGI in the assay with SR leukemia, in the assay on U251 CNS, in the assay on MCF7 breast, in the assay on BT-549 breast, in the assay on UACC-257 melanoma and in the assay on HT29 colon was over 50 µM throughout. The TGI in the assay on RXF 393 renal, in the assay with OVCAR-8 ovarian and in the assay on DU-145 prostate was over 50 µM each time.

Turning to `CC(C)(CO)CNc1cc(Cl)nc(N)n1`, the TGI with SR leukemia, in the assay on U251 CNS, in the assay with MCF7 breast, in the assay on BT-549 breast, in the assay on UACC-257 melanoma and in the assay on HT29 colon was over 100 µM in each case. Further, the TGI in the assay on RXF 393 renal, with OVCAR-8 ovarian and in the assay with DU-145 prostate was over 100 µM each time.
